The values below come from patent publication US20260258025A1, “INHIBITORS OF TDP-43 AND TAU AGGREGATION” (Aquinnah Pharmaceuticals, inc., priority 2023, published 2026).

The subject of this assay is TDP-43 aggregation. The experiment in a line: TDP-43 aggregation assay in SY5Y TDP-43WT cells (high content imaging). The format is cell-based. To be noted: Homo sapiens, tetracycline induction 24 hrs, 1 hour compound pre-treatment, sodium arsenite 23 hrs, 8-point dose curve, percentage of cells with TDP-43 aggregates, read-out: IC50, Inhibition of TDP-43 Aggregation. The protocol:
Exemplary compounds disclosed herein were evaluated for efficacy in inhibiting TDP-43 inclusions cellular imaging-based assays.
The cellular model was in human neuroblastoma SH SYSY cells (ATCC, cat #: CRL-2266). The parent cell line was first engineered to stably express a tetracycline repressor protein (designated as TREx-SY5Y cells, customer cell line development by ThermoFisher). Wild-type human TDP-43 with a C-terminus eGFP tag was synthesized and cloned into pcDNA5/TO expression vector (ThermoFisher). The plasmid was transfected into TREx-SY5Y cells using Lipofectamine 2000 and hygromycin resistant colonies were selected. Expression of TDP-43WT::eGFP was examined under fluorescent microscopy and Western blot upon tetracycline induction. The clone that was used for TDP-43 aggregation assay is referred to as SY5Y TDP-43WT cells hereafter.
Compound inhibition of TDP-43 aggregation was tested in an 8-point dose curve in 96-well format. Briefly, TDP-43WT::eGFP expression was induced with […] for 24 hrs (SY5Y TDP-43WT cells). The cells were then pre-treated for 1 hour with exemplary compounds before adding sodium arsenite to a final concentration of […] and incubated for another 23 hrs. At the end of the treatment the cell monolayers were washed in PBS and fixed in 4% paraformaldehyde (PFA), diluted from 16% stock (Electron Microscopy Sciences cat: #15710-S). The inhibitory effect on TDP-43 aggregation was measured using CellInsight CX7 high content imager (ThermoFisher). The percentage of cells with TDP-43 aggregates was calculated based on the total number of cells identified by DAPI staining. An 8-point dose response curve was generated, and the IC50 for each compound tested was determined (Table 3).
In Table 3 below, A indicates an IC50 (nM)<500 nM, B indicates an IC50 (nM) 500 nM to <1000 nM, C indicates an IC50 (nM) 1000 nM to <2000 nM, D indicates an IC50 (nM) 2000 nM to <6000 nM, and E indicates an IC50 (nM) 6000 nM to ≤10000 nM.
By IC50 is commonly meant the point on the concentration scale where inhibition reaches its midpoint. Take `Cc1cc(-c2ccc(C3(N(C)C)CCCCC3)cc2)sc1C(=O)N1CC[C@H](N)C1` [Compound 192, (S)-(3-aminopyrrolidin-1-yl){5-[4-(1-dimethylaminocyclohexyl)phenyl]-3-methylthiophen-2-yl}methanone]: the IC50 was 2000 to 6000 nM.
The value for `Cc1cc(-c2ccc(C3CCN(C4COC4)CC3)c(F)c2)sc1C(=O)N1CC[C@H](N)C1` [Compound 264, (S)-(3-aminopyrrolidin-1-yl)(5-(3-fluoro-4-(1-(oxetan-3-yl)piperidin-4-yl)phenyl)-3-methylthiophen-2-yl)methanone] was less than 500 nM; that for `Cc1cc(-c2ccc(N3CCC(C)CC3)cc2)sc1C(=O)N1CC[C@H](N)C1` [Compound 184, (S)-(3-aminopyrrolidin-1-yl)(3-methyl-5-(4-(4-methylpiperidin-1-yl)phenyl)thiophen-2-yl)methanone] was 2000 to 6000 nM.
The value for `Cc1cc(-c2ccc(C3CCN(CCO)CC3)c(F)c2)sc1C(=O)N1CC[C@H](N)C1` [Compound 262, (S)-(3-aminopyrrolidin-1-yl)(5-(3-fluoro-4-(1-(2-hydroxyethyl)piperidin-4-yl)phenyl)-3-methylthiophen-2-yl)methanone] was less than 500 nM; that for `CCc1ccc(-c2sc(C(=O)N3CC[C@H](N)C3)c(C)c2C)cc1` [Compound 233] was 6000 to 10000 nM.
The result for `Cc1cc(-c2ccc(C3CCN(C4CCNCC4)CC3)cc2)sc1C(=O)N1CC[C@H](N)C1` [Compound 177, (S)-(5-(4-([1,4′-bipiperidin]-4-yl)phenyl)-3-methylthiophen-2-yl)(3-aminopyrrolidin-1-yl)methanone] reads 500 to 1000 nM; that for `COCCN1CCC(c2ccc(-c3cc(C)c(C(=O)N4CC[C@H](N)C4)s3)cc2Cl)CC1` [Compound 248, (S)-(3-aminopyrrolidin-1-yl)(5-(3-chloro-4-(1-(2-methoxyethyl)piperidin-4-yl)phenyl)-3-methylthiophen-2-yl)methanone], 500 to 1000 nM; that for `CCc1cc(-c2ccc(C3CCN(C4CCOCC4)CC3)cc2)sc1C(=O)N1CC[C@H](N)C1` [Compound 289, (S)-(3-aminopyrrolidin-1-yl)(3-ethyl-5-(4-(1-(tetrahydro-2H-pyran-4-yl)piperidin-4-yl)phenyl)thiophen-2-yl)methanone], less than 500 nM.
As to `Cc1ccc(-c2cc(C)c(C(=O)N3CC[C@H](N)C3)s2)cc1` [Compound 225], the IC50 was less than 500 nM.
The value for `CCc1ccc(-c2cc(C)c(C(=O)N3CC[C@H](N)C3)s2)cc1C` [Compound 220] was 6000 to 10000 nM; that for `Cc1cc(-c2ccc(C3CCN(C(C)C)CC3)c(F)c2)sc1C(=O)N1CC[C@H](N)C1` [Compound 282, (S)-(3-aminopyrrolidin-1-yl)(5-(3-fluoro-4-(1-isopropylpiperidin-4-yl)phenyl)-3-methylthiophen-2-yl)methanone] was less than 500 nM.
The value for `COc1cc(-c2ccc(C3CCN(C4CCOCC4)CC3)c(Cl)c2)sc1C(=O)N1CC[C@H](N)C1` [Compound 272, (S)-(3-aminopyrrolidin-1-yl)(5-(3-chloro-4-(1-(tetrahydro-2H-pyran-4-yl)piperidin-4-yl)phenyl)-3-methoxythiophen-2-yl)methanone] was 1000 to 2000 nM.
As to `Cc1cc(-c2ccc(C3CCN(C4CSC4)CC3)cc2)sc1C(=O)N1CC[C@H](N)C1` [Compound 172, (S)-(3-aminopyrrolidin-1-yl){3-methyl-5-[4-(1-thietan-3-ylpiperidin-4-yl)phenyl]thiophen-2-yl} methanone], the IC50 is less than 500 nM.
The value for `Cc1cc(-c2ccc(C3CCOCC3)cc2)sc1C(=O)N1CC[C@H](N)C1` [Compound 243] was less than 500 nM; that for `N[C@H]1CCN(C(=O)c2sc(-c3ccc(C4CCN(C5CCC5)CC4)c(F)c3)cc2Cl)C1` [Compound 271, (S)-(3-aminopyrrolidin-1-yl)(3-chloro-5-(4-(1-cyclobutylpiperidin-4-yl)-3-fluorophenyl)thiophen-2-yl)methanone] was less than 500 nM; that for `Cc1cc(-c2cc(Cl)cc(Cl)c2)sc1C(=O)N1CC[C@H](N)C1` [Compound 245] was 6000 to 10000 nM.
Consider `COC(C)(C)CN1CCC(c2ccc(-c3cc(Cl)c(C(=O)N4CC[C@H](N)C4)s3)cc2F)CC1` [Compound 249, (S)-(3-aminopyrrolidin-1-yl)(3-chloro-5-(3-fluoro-4-(1-(2-methoxy-2-methylpropyl)piperidin-4-yl)phenyl)thiophen-2-yl)methanone], for which the IC50 is less than 500 nM.
The value for `Cc1cc(-c2ccc(COC3CCOCC3)cc2)sc1C(=O)N1CC[C@H](N)C1` [Compound 202, (S)-(3-aminopyrrolidin-1-yl)(3-methyl-5-(4-((tetrahydro-2H-pyran-4-yloxy)methyl)phenyl)thiophen-2-yl)methanone] was 1000 to 2000 nM; that for `C#CCOCCN1CCC(c2ccc(-c3cc(C)c(C(=O)N4CC[C@H](N)C4)s3)cc2)CC1` [Compound 288, (S)-(3-amino-pyrrolidin-1-yl)(3-methyl-5-(4-(1-(2-(prop-2-yn-1-yloxy)ethyl)piperidin-4-yl)phenyl)thiophen-2-yl) methanone] was less than 500 nM.
The result for `Cc1cc(-c2ccc(C3CCN(C4CCC4)CC3)c(F)c2)sc1C(=O)N1CC[C@H](N)C1` [Compound 279, (S)-(3-aminopyrrolidin-1-yl)(5-(4-(1-cyclobutylpiperidin-4-yl)-3-fluorophenyl)-3-methylthiophen-2-yl)methanone] reads less than 500 nM; that for `Cc1cc(-c2ccc(C3CCN(C4CCCC4)CC3)c(F)c2)sc1C(=O)N1CC[C@H](N)C1` [Compound 278, (S)-(3-aminopyrrolidin-1-yl)(5-(4-(1-cyclopentylpiperidin-4-yl)-3-fluorophenyl)-3-methylthiophen-2-yl)methanone], less than 500 nM.
The result for `Cc1cc(-c2ccc(C3CCNCC3)cc2)sc1C(=O)N1CC[C@H](N)C1` [Compound 205, (S)-(3-aminopyrrolidin-1-yl){3-methyl-5-[4-(piperidin-4-yl)phenyl]thiophen-2-yl}methanone] reads 500 to 1000 nM; that for `Cc1cc(-c2ccc(C(C)(C)N(C)C)cc2)sc1C(=O)N1CC[C@H](N)C1` [Compound 190, (S)-(3-aminopyrrolidin-1-yl)(5-(4-(2-(dimethylamino)propan-2-yl)phenyl)-3-methylthiophen-2-yl)methanone], less than 500 nM.
Turning to `CC(C)N1CCC(c2ccc(-c3cc(Cl)c(C(=O)N4CC[C@H](N)C4)s3)cc2F)CC1` [Compound 284, (S)-(3-aminopyrrolidin-1-yl)(3-chloro-5-(3-fluoro-4-(1-isopropylpiperidin-4-yl)phenyl)thiophen-2-yl)methanone], the IC50 was less than 500 nM.
The result for `Cc1cc(-c2ccc(C3=CCOCC3)cc2)sc1C(=O)N1CC[C@H](N)C1` [Compound 236] reads less than 500 nM; that for `N[C@H]1CCN(C(=O)c2sc(-c3ccc(C4CCN(C5CCOC5)CC4)c(F)c3)cc2Cl)C1` (stereo partly drawn) [Compound 267, ((S)-3-aminopyrrolidin-1-yl)(3-chloro-5-(3-fluoro-4-(1-(tetrahydrofuran-3-yl)piperidin-4-yl)phenyl)thiophen-2-yl)methanone], less than 500 nM.
Regarding `N[C@H]1CCN(C(=O)c2sc(-c3ccc(C4CCN(CCO)CC4)c(F)c3)cc2Cl)C1` [Compound 263, (S)-(3-aminopyrrolidin-1-yl)(3-chloro-5-(3-fluoro-4-(1-(2-hydroxyethyl)piperidin-4-yl)phenyl)thiophen-2-yl)methanone], the IC50 is less than 500 nM.
The value for `Cc1cc(-c2ccc(C3CCN(C4CCOC4)CC3)c(F)c2)sc1C(=O)N1CC[C@H](N)C1` (stereo partly drawn) [Compound 274, ((S)-3-aminopyrrolidin-1-yl)(5-(3-fluoro-4-(1-(tetrahydrofuran-3-yl)piperidin-4-yl)phenyl)-3-methylthiophen-2-yl)methanone] was less than 500 nM; that for `Cc1cc(-c2ccc3c(c2)N(C)CCC3)sc1C(=O)N1CC[C@H](N)C1` [Compound 196, (S)-(3-aminopyrrolidin-1-yl)(3-methyl-5-(1-methyl-1,2,3,4-tetrahydroquinolin-7-yl)thiophen-2-yl)methanone] was 6000 to 10000 nM.
On to `CCN1CCC(c2ccc(-c3cc(Cl)c(C(=O)N4CC[C@H](N)C4)s3)cc2F)CC1` [Compound 266, (S)-(3-aminopyrrolidin-1-yl)(3-chloro-5-(4-(1-ethylpiperidin-4-yl)-3-fluorophenyl)thiophen-2-yl)methanone], for which the IC50 was less than 500 nM.
The value for `Cc1cc(-c2ccc(C3(N(C)C)CCC3)cc2)sc1C(=O)N1CC[C@H](N)C1` [Compound 187, (S)-(3-aminopyrrolidin-1-yl)(5-(4-(1-(dimethylamino)cyclobutyl)phenyl)-3-methylthiophen-2-yl)methanone] was 500 to 1000 nM.
The result for `Cc1cc(-c2ccc(-c3cn[nH]c3)cc2)sc1C(=O)N1CC[C@H](N)C1` [Compound 242] reads less than 500 nM.
